Reference: patent publication US20220380402A1, “6-HYDRAZINOADENOSINE COMPOUNDS WITH A2A ADENOSINE RECEPTOR AGONIST ACTIVITY” (ACADEMY OF MILITARY MEDICAL SCIENCES, priority 2019, published 2022)

Assays:
[1] = biological target: T1, A2A adenosine receptor (Homo sapiens, UniProt P29274); assay: Radioligand binding test ([3H]CGS21680 displacement, hA2A HEK-293 cell membrane); details: calculated from IC50 by Cheng and Prusoff equation; [3H]CGS21680 25 nM, Km 22 nM; 25° C., 90 minutes
T1 construct: purchased PerkinElmer Research Products (Boston, Mass.); host or cells: HEK-293 cells, stably transfected; membrane preparation
T1 sequence (P29274 whole entry): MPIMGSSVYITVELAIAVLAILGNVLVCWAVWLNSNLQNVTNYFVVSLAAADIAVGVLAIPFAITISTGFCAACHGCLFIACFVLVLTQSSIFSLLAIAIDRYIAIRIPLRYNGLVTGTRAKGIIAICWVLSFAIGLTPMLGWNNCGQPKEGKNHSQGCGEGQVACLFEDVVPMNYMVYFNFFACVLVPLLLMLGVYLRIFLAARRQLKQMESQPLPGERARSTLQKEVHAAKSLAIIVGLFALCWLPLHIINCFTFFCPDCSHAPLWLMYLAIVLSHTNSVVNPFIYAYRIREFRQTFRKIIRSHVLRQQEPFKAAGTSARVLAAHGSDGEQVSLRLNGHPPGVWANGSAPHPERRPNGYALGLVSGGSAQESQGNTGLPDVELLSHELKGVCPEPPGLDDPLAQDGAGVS
Protocol: [3H]CGS21680 (2-[p-(2-carboxyethyl)phenylethylamino]-5′-N-ethylformamidoadenosine, [carboxy-1-ethyl-3H(N)]; 250 μCi) was purchased from PerkinElmer Research Products (Boston, Mass.).
Cell membrane stably transfected with (human) A2A adenosine receptor was prepared in HEK-293 cells. The cell membrane was obtained from PerkinElmer Research Products (Boston, Mass.).
CGS21680 (2-[p-(2-carboxyethyl)phenylethylamino]-5′-N-ethylformamidoadenosine) was purchased from Selleck (Shanghai, CN).
The A2A adenosine receptors used were all expressed in the cell membrane. […] The specific binding percentage of [3H]CGS21680 was calculated according to the CPM value, % specific binding of [3H]CGS21680=(CPMsample−CPMLow Control)/(CPMHigh Control−CPMLow Control)*100, in which
High Control was 0.5% DMSO, Low Control was 100 μM CGS21680. The IC50 value was calculated based on the compound concentration and the specific binding percentage of [3H]CGS21680 by curve fitting.
The inhibition constant (Ki) value was calculated from the IC50 value according to the Cheng and Prusoff equation, Ki=IC50/(1+[S]/Km), in which [S] was the concentration of the radioligand (25 nM), and Km was the human A2AAR dissociation constant (22 nM) of [3H]CGS21680. The inhibition constant Ki values for Compounds 1 to 20 of the present invention binding to A2A adenosine receptor were shown in Table 1.

| SMILES | Ki [1] | melting point |
| --- | --- | --- |
| OC[C@H]1O[C@@H](n2cnc3c(N/N=C/c4ccc[nH]4)ncnc32)[C@H](O)[C@@H]1O [Compound 1, (2R,3R,4S,5R)-2-{6-{2-[(E)-(1H-pyrrol-2-yl)methylene]hydrazino}-9H-purin-9-yl}-5-(hydroxymethyl)tetrahydrofuran-3,4-diol] | 945 nM | 160 °C |
| CSCC/C=N/Nc1ncnc2c1ncn2[C@@H]1O[C@H](CO)C(O)C1O (stereo partly drawn) [Compound 2, (2R,3S,4R,5R)-2-(hydroxymethyl)-5-{6-{2-[(E)-3-(methylthio)propylene]hydrazino}-9H-purin-9-yl}tetrahydrofuran-3,4-diol] | 2150 nM | 94 °C |
| CC(=O)Nc1ccc(/C=N/Nc2ncnc3c2ncn3[C@@H]2O[C@H](CO)C(O)C2O)cc1 (stereo partly drawn) [Compound 3, N-{4-{(E)-{2-{9-[(2R,3R,4S,5R)-3,4-dihydroxy-5-(hydroxymethyl)tetrahydrofuran-2-yl]-9H-purin-6-yl}hydrazino}methyl}phenyl}acetamide] | 3.6 nM | 170 °C |
| OC[C@H]1O[C@@H](n2cnc3c(N/N=C/c4ccc(OCc5ccccc5)c(OCc5ccccc5)c4)ncnc32)C(O)C1O (stereo partly drawn) [Compound 4] | > 10000 nM | 186 °C |
| OC[C@H]1O[C@@H](n2cnc3c(N/N=C/c4ccc(C(F)(F)F)cc4C(F)(F)F)ncnc32)[C@H](O)[C@@H]1O [Compound 6, (2R,3R,4S,5R)-2-{6-{2-[(E)-2,4-bis(trifluoromethyl)benzylidene]hydrazino}-9H-purin-9-yl}-5-(hydroxymethyl)tetrahydrofuran-3,4-diol] | 1.2 nM | 200 °C |
| OC[C@H]1O[C@@H](n2cnc3c(N/N=C/c4cccc(OCc5ccccc5)c4)ncnc32)[C@H](O)[C@@H]1O [Compound 8, (2R,3R,4S,5R)-2-{6-{2-[(E)-3-(benzyloxy)benzylidene]hydrazino}-9H-purin-9-yl}-5-(hydroxymethyl)tetrahydrofuran-3,4-diol] | 236 nM | 140 °C |
| OC[C@H]1O[C@@H](n2cnc3c(N/N=C/c4ccc(-c5ccccn5)cc4)ncnc32)[C@H](O)[C@@H]1O [Compound 9, (2R,3S,4R,5R)-2-(hydroxymethyl)-5-{6-{2-[(E)-4-(pyridin-2-yl)benzylidene]hydrazino}-9H-purin-9-yl}tetrahydrofuran-3,4-diol] | 4590 nM | 236 °C |
| OC[C@H]1O[C@@H](n2cnc3c(N/N=C/c4ccc(-c5ccccc5)cc4)ncnc32)C(O)C1O (stereo partly drawn) [Compound 10] | 1900 nM | 170 °C |
| OC[C@H]1O[C@@H](n2cnc3c(N/N=C/c4ccc(N5CCCC5)cc4)ncnc32)[C@H](O)[C@@H]1O [Compound 11, (2R,3S,4R,5R)-2-(hydroxymethyl)-5-{6-{2-[(E)-4-(pyrrolidin-1-yl)benzylidene]hydrazino}-9H-purin-9-yl}tetrahydrofuran-3,4-diol] | 2 nM | 202 °C |
| OC[C@H]1O[C@@H](n2cnc3c(N/N=C/c4ccc(-n5ccnc5)cc4)ncnc32)[C@H](O)[C@@H]1O [Compound 12, (2R,3R,4S,5R)-2-{6-{2-[(E)-4-(1H-imidazol-1-yl)benzylidene]hydrazino}-9H-purin-9-yl}-5(hydroxymethyl)tetrahydrofuran-3,4-diol] | 15.4 nM | 222 °C |
| CCCOc1ccc(/C=N/Nc2ncnc3c2ncn3[C@@H]2O[C@H](CO)[C@@H](O)[C@H]2O)cc1 [Compound 13, (2R,3S,4R,5R)-2-(hydroxymethyl)-5-{6-{2-[(E)-4-propoxybenzylidene]hydrazino}-9H-purin-9-yl}tetrahydrofuran-3,4-diol] | 4470 nM | 202 °C |
| OC[C@H]1O[C@@H](n2cnc3c(N/N=C/c4ccc(C(F)(F)F)cc4)ncnc32)[C@H](O)[C@@H]1O [Compound 14, (2R,3S,4R,5R)-2-(hydroxymethyl)-5-{6-{2-[(E)-4-(trifluoromethyl)benzylidene]hydrazino}-9H-purin-9-yl}tetrahydrofuran-3,4-diol] | 520 nM | 182 °C |
| CN(C)c1ccc(/C=C/C=N/Nc2ncnc3c2ncn3[C@@H]2O[C@H](CO)[C@@H](O)[C@H]2O)cc1 [Compound 17, (2R,3R,4S,5R)-2-{6-{2-{(1E,2E)-3-[4-(dimethylamino)phenyl]allylidene}hydrazino}-9H-purin-9-yl}-5-(hydroxymethyl)tetrahydrofuran-3,4-diol] | 1.4 nM | 172 °C |
| OC[C@H]1O[C@@H](n2cnc3c(N/N=C/c4ccc(Cl)c(C(F)(F)F)c4)ncnc32)C(O)C1O (stereo partly drawn) [Compound 18] | 1470 nM | 196 °C |
| OC[C@H]1O[C@@H](n2cnc3c(N/N=C/c4ccc(N(c5ccccc5)c5ccccc5)cc4)ncnc32)C(O)C1O (stereo partly drawn) [Compound 19] | 5580 nM | 160 °C |
| CCCCc1nc(/C=N/Nc2ncnc3c2ncn3[C@@H]2O[C@H](CO)[C@@H](O)[C@H]2O)c(Cl)[nH]1 [Compound 20, (2R,3R,4S,5R)-2-{6-{2-[(E)-(2-butyl-5-chloro-1H-imidazol-4-yl)methylene]hydrazino}-9H-purin-9-yl}-5-(hydroxymethyl)tetrahydrofuran-3,4-diol] | 998 nM | 178 °C |
| CCCCC/C=C/C=C/C=N/Nc1ncnc2c1ncn2[C@@H]1O[C@H](CO)[C@@H](O)[C@H]1O [Compound 21, (2R,3R,4S,5R)-2-{6-{2-[(1E,2E,4E)-deca-2,4-dien-1-ylidene]hydrazino}-9H-purin-9-yl}-5(hydroxymethyl)tetrahydrofuran-3,4-diol] | 1.2 nM | 178 °C |
| OC[C@H]1O[C@@H](n2cnc3c(N/N=C/C4CCCCC4)ncnc32)[C@H](O)[C@@H]1O [Compound 22, (2R,3R,4S,5R)-2-{6-{2-[(E)-cyclohexylmethylene]hydrazino}-9H-purin-9-yl}-5-(hydroxylmethyl)tetrahydrofuran-3,4diol] | 86.6 nM | 132 °C |
